{"source": "patent US20250032403A1", "about": "“COMPOSITIONS FOR TREATING PERIODONTAL DISEASES” (GR Biosystems, Inc., priority 2017, published 2025)", "key": {"[1]": {"tested_on": "MMP-2", "test": "Western blot of MMP-2 protein expression in LPS-induced HGF-1 cells", "type": "cell-based, human", "conditions": "for MMP-2 production: HGF-1, LPS 5 μg/mL + curcumin 2.5, 5 or 10 μM, n=3, FIG. 15", "procedure": "(§1) Human Gingival Fibroblasts (HGF-1) were purchased from ATCC (Manassas, VA) and were grown in DMEM with Glutamax, 10% FBS and Penicillin/Streptomycin (All from Gibco) and kept at 37° C. in a humidified air chamber with 5% CO2. Cells were seeded at 3×10^5 cells/flask for the experiments and then grown to confluency. Cells between 3 and 10 passages were used for all experiments.\n(§2) 1,2,3,4,6-Penta-O-galloyl-β-D-glucose (purchased from Sigma-Aldrich) was dissolved in dimethylsulfoxide (DMSO) to obtain a 100 mM stock solution.\n(§3) The supernatant was collected and assayed for protein concentration.\n(§4) The gels were prepared by standard methods and electrophoresed for 1 hour at 150 V.\n(§5) Incubation was done according to specific instructions from the manufacturer for each antibody. […] After incubation and washing with PBS-T, the membranes were incubated in the dark in blocking solution with 0.2% Tween, IRDye 800CW Goat anti-Rabbit IgG, and IRDye® 680RD Donkey anti-Mouse IgG (1:10000, LI-COR Biosciences, Lincoln, NE) for 1 hour at room temperature. The proteins were detected and visualized by fluorescence using the Licor Odyssey Classic Infrared Imaging system (LI-COR Biosciences, Lincoln, NE). Densitometry analysis of specific bands was performed with the Image Studio software provided by LI-COR Biosciences. Statistical analysis, including 1-way ANOVA with Dunnett's Multiple Comparison Test, was done using GraphPad Prism (GraphPad Software, La Jolla, CA).\nHuman gingival fibroblasts (HGF-1) were treated with lipopolysaccharide (LPS) from P. gingivalis to reproduce the type of inflammatory response seen in chronic periodontitis. Upon treatment with […], MMP-2 was released into the pericellular space to be activated by MMP-14. Subsequently, MMP-2 and MMP-14 activate MMP-13. […] LPS activation of MMP-2, MMP-13 and MMP-14, however, was attenuated by the administration of PGG.\n(§6) HGF-1 cells were induced with LPS (5 μg/mL) to mimic the inflammatory process and Curcumin was added at different concentrations (2.5, 5 and 10 μM)."}, "[2]": {"tested_on": "MMP-13", "test": "Western blot of MMP-13 protein expression in LPS-induced HGF-1 cells", "type": "cell-based, human", "procedure": "as §1, §2, §3, §4\nas §5, with “Statistical analysis, including 1-way ANOVA with Dunnett's Multiple Comparison Test, was done using GraphPad Prism (GraphPad Software, La Jolla, CA).” left out"}, "[3]": {"tested_on": "MMP-14", "test": "Western blot of MMP-14 protein expression in LPS-induced HGF-1 cells", "type": "cell-based, human", "procedure": "as §1, §2, §3, §4\nas §5, with “Statistical analysis, including 1-way ANOVA with Dunnett's Multiple Comparison Test, was done using GraphPad Prism (GraphPad Software, La Jolla, CA).” left out"}, "[4]": {"tested_on": "MMP-3", "test": "Western blot of MMP-3 protein expression in LPS-induced HGF-1 cells", "type": "cell-based, human", "procedure": "as §1, §2, §3, §4, §5\nHGF-1 cells were treated with lipopolysaccharide (LPS, 5 μg/mL) from P. gingivalis in order to reproduce the type of inflammatory response seen in chronic periodontitis.\nas §6"}, "[5]": {"tested_on": "MMP-9", "test": "Western blot of MMP-9 protein expression in LPS-induced HGF-1 cells", "type": "cell-based, human", "conditions": "FIG. 5", "procedure": "as §1, §2, §3, §4\nas §5, with “Statistical analysis, including 1-way ANOVA with Dunnett's Multiple Comparison Test, was done using GraphPad Prism (GraphPad Software, La Jolla, CA).” left out"}, "[6]": {"tested_on": "Human MMP-2; MMP2", "test": "Real time quantitative PCR of MMP-2 gene expression in HGF-1 cells", "type": "cell-based", "procedure": "(§7) Gene expression of MMPs was evaluated after treatment under different conditions. The tissue culture was washed with PBS. […] All samples were treated with Qiagen DNase (Cat #79254).\n(§8) Real time quantitative PCR was performed on an Applied Biosciences StepOne plus instrument and analyzed with StepOne software v2.3. The relative amounts of transcripts from each gene were normalized to reference gene GAPDH and calculated as follows: ΔΔCT=the average ΔCT of […]−the average ΔCT of […], and their fold difference=2^−ΔΔCT as previously described."}, "[7]": {"tested_on": "MMP-9", "test": "Real time quantitative PCR of MMP-9 gene expression in HGF-1 cells", "type": "cell-based, human", "procedure": "as §7, §8"}, "[8]": {"tested_on": "Human MMP-13; MMP13", "test": "Real time quantitative PCR of MMP-13 gene expression in HGF-1 cells", "type": "cell-based", "procedure": "as §7, §8"}, "[9]": {"tested_on": "Human MMP-14; MMP14", "test": "Real time quantitative PCR of MMP-14 gene expression in HGF-1 cells", "type": "cell-based", "procedure": "as §7, §8"}, "[10]": {"tested_on": "MMPs", "test": "Real time quantitative PCR of MMP gene expression (all MMPs tested) in HGF-1 cells", "type": "cell-based, human", "procedure": "as §7, §8"}, "[11]": {"tested_on": "TNF-α", "conditions": "PBMCs, doses as low as 5 μM; cited from earlier work"}, "[12]": {"tested_on": "toll-like receptors 4 (TLR4)", "conditions": "peritoneal and colonic macrophages; cited from earlier work"}, "[13]": {"biological_target": "T1, MyD88 adaptor protein (Mus musculus, UniProt P22366)", "T1 construct": "host or cells: peritoneal and colonic macrophages", "T1 sequence (P22366 whole entry)": "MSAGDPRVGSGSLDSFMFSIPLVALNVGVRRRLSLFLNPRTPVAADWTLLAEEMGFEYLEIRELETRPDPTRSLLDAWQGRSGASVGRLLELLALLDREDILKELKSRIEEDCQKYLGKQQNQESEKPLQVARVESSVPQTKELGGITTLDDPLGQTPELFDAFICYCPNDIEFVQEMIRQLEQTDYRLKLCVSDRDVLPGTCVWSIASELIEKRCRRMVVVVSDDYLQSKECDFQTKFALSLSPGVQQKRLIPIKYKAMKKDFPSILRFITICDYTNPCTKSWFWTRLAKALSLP", "conditions": "peritoneal and colonic macrophages; cited from earlier work"}, "[14]": {"tested_on": "TNF-α, IL-1β and IL-6", "conditions": "peritoneal and colonic macrophages; cited from earlier work"}, "[15]": {"tested_on": "TNF-α and IL-1β", "conditions": "peripheral blood mononuclear cells, PGG alone; cited from earlier work"}, "[16]": {"conditions": "HGF-1, LPS + PGG 25 μM (lowest dose tested), 48 hours"}, "[17]": {"conditions": "HGF-1, LPS + PGG 50-100 μM, FIG. 6"}, "[18]": {"conditions": "HGF-1, LPS 5 μg/mL + PGG 100 μM, p<0.05, n=3"}}, "note": "“Also recorded” adds a separate entry of the source."}
{"smiles": "O=C(OC[C@H]1O[C@@H](OC(=O)c2cc(O)c(O)c(O)c2)[C@H](OC(=O)c2cc(O)c(O)c(O)c2)[C@@H](OC(=O)c2cc(O)c(O)c(O)c2)[C@@H]1OC(=O)c1cc(O)c(O)c(O)c1)c1cc(O)c(O)c(O)c1", "note": "[PGG, 1,2,3,4,6-penta-O-galloyl-β-D-glucose]", "values": [{"measurement": "MMP-2 protein level after LPS treatment", "setting": "[1]; [16]", "result": "reduction of these three MMPs to basal levels of production"}, {"measurement": "MMP-2 levels compared to healthy control", "setting": "[1]; HGF-1, PGG 100 μM, FIG. 1", "result": "reduced significantly; also recorded: lower than in healthy controls"}, {"measurement": "MMP-2 expression compared to healthy controls", "setting": "[1]; HGF-1, simultaneously treated with LPS and increasing PGG concentrations, FIG. 1", "result": "not significantly different than in healthy controls"}, {"measurement": "MMP-13 protein level after LPS treatment", "setting": "[2]; [16]", "result": "reduction of these three MMPs to basal levels of production"}, {"measurement": "MMP-13 expression in the PGG treated groups", "setting": "[2]; HGF-1, LPS + PGG, FIG. 2", "result": "not significantly different than the healthy controls; also recorded: prevented upregulation of MMP-13 in a dose-dependent manner"}, {"measurement": "MMP-14 expression in the PGG treated groups", "setting": "[3]; HGF-1, LPS 5 μg/mL + PGG, 48 hour, FIG. 3", "result": "not significantly different than the healthy controls; also recorded: not significantly different from healthy controls"}, {"measurement": "MMP-14 protein level after LPS treatment", "setting": "[3]; [16]", "result": "reduction of these three MMPs to basal levels of production"}, {"measurement": "MMP-3 protein level", "setting": "[4]; HGF-1, LPS 5 μg/mL + PGG 25 μM, FIG. 4", "result": "comparable to healthy control values"}, {"measurement": "MMP-3 protein level", "setting": "[4]; HGF-1, LPS 5 μg/mL + PGG 50 and 100 μM, p<0.001, FIG. 4", "result": "further reduced MMP-3 to levels below basal production"}, {"measurement": "MMP-9 protein level compared to LPS inflammatory control", "setting": "[5]; HGF-1, LPS 5 μg/mL + PGG at a dose lower than 50 μM", "result": "decreased the MMP-9 level"}, {"measurement": "MMP-9 protein level, return to normal levels", "setting": "[5]; HGF-1, LPS 5 μg/mL + PGG", "result": "did not return to normal levels until it was treated with at least 50 μM PGG"}, {"measurement": "MMP-2 gene expression", "setting": "[6]; HGF-1, LPS 5 μg/mL + PGG 100 μM, p<0.01, n=3, FIG. 6", "result": "decreased the expression of MMP-2 compared to treatment with PGG 25-50 μM, yet expression was still higher compared with healthy HGF-1"}, {"measurement": "MMP-2 gene expression compared with LPS induction with or without PGG 25 μM", "setting": "[6]; [17]", "result": "reduced MMP-2, MMP-9, MMP-13, and MMP-14 expression"}, {"measurement": "MMP-9 gene expression compared with induction with LPS alone", "setting": "[7]; [18]", "result": "significantly reduced the expression of MMP-9, MMP-13 and MMP-14"}, {"measurement": "MMP-9 gene expression compared with LPS induction with or without PGG 25 μM", "setting": "[7]; [17]", "result": "reduced MMP-2, MMP-9, MMP-13, and MMP-14 expression"}, {"measurement": "MMP-13 gene expression compared with induction with LPS alone", "setting": "[8]; [18]", "result": "significantly reduced the expression of MMP-9, MMP-13 and MMP-14"}, {"measurement": "MMP-13 gene expression compared with LPS induction with or without PGG 25 μM", "setting": "[8]; [17]", "result": "reduced MMP-2, MMP-9, MMP-13, and MMP-14 expression"}, {"measurement": "MMP-14 gene expression compared with induction with LPS alone", "setting": "[9]; [18]", "result": "significantly reduced the expression of MMP-9, MMP-13 and MMP-14"}, {"measurement": "MMP-14 gene expression compared with LPS induction with or without PGG 25 μM", "setting": "[9]; [17]", "result": "reduced MMP-2, MMP-9, MMP-13, and MMP-14 expression"}, {"measurement": "MMP gene expression", "setting": "[10]; HGF-1, LPS 5 μg/mL + PGG 25 μM, FIG. 6", "result": "did not vary gene expression in a significant manner"}, {"measurement": "MPP gene expression", "setting": "[10]; healthy HGF-1 (no LPS), PGG 100 μM", "result": "did not significantly change"}, {"measurement": "suppression of LPS-induced TNF-α production", "setting": "[11]", "result": "≤ 90", "unit": "%"}, {"measurement": "interference with the binding of LPS to TLR4", "setting": "[12]", "result": "did not interfere"}, {"measurement": "interaction with MyD88 adaptor protein", "setting": "[13]", "result": "interacted directly"}, {"measurement": "production of TNF-α, IL-1β and IL-6", "setting": "[14]", "result": "decreasing the production"}, {"measurement": "cytokine production of PBMCs on treatment with PGG", "setting": "[15]", "result": "resulted in the production of TNF-α and IL-1β"}]}
{"smiles": "COc1cc(/C=C/C(=O)CC(=O)/C=C/c2ccc(O)c(OC)c2)ccc1O", "note": "[curcumin, reference compound]", "values": [{"measurement": "MMP-2 production", "setting": "[1]", "result": "not significantly different that the untreated HGF-1"}, {"measurement": "MMP-2 production", "setting": "[1]; listed as Curcumin", "result": "decreased MMP-2 production"}, {"measurement": "MMP-2 expression", "setting": "[1]; HGF-1 treated with Curcumin 10 μM alone (no LPS), p>0.05, n=3", "result": "not significantly different from untreated HGF-1"}, {"measurement": "MMP-3 production", "setting": "[4]; HGF-1, LPS 5 μg/mL + curcumin 2.5, 5 and 10 μM, FIG. 16", "result": "decreased MMP-3 production"}]}
